Measured values published in patent US20200390755A1, “COMPOUND FOR TREATING NERVOUS SYSTEM DISEASES AND USE THEREOF” (SHAANXI MICOT TECHNOLOGY CO., LTD., priority 2018, published 2020).

Assays:
WT mice [1] = assay: Rotarod experiment, WT mice; type: in vivo, mouse; conditions: 5 mg/kg/d intragastric
Method: 7-week-old N171-82Q HD male mice were paired with female B6C3F1/J hybrid mice to obtain newborn mice. From 21 days of age, male mice were housed in separate cages. 0.5 cm of mouse tail tissue was removed to extract DNA to determine the genotype of the mouse, such that N171-82Q HD mice and WT mice needed for the experiment were obtained. The mice were randomly divided into WT Vehicle group (normal mice), WT test compound group (administration group of normal mice, 5 mg/kg/d, n=10), HD Vehicle group (blank group of HD mice, n=15), HD test compound group (administration groups 1-5 of HD mice, 5 mg/kg/d, n=10). The test compound was suspended in 1% CMC-Na solution and administered by intragastric administration until the end of the study. The weights of the mice were measured every week. Behavioral tests were performed at 12 weeks, 18 weeks, and 24 weeks of age to investigate motor function. At 20 weeks, 3 samples of tissue from each group were used for western blotting and immunohistochemistry. At 24 weeks, MRI scans were performed. At the end of the study, the effect of the test compound on the mortality of mice was evaluated. The software Sigmaplot 13.0 was used for statistical analysis of the data, and the data of each group was expressed as mean standard error (x±SEM). Behavioral test results were analyzed using two-way (genotype and processing factor) ANOVA and post-ho tests, the comparison and statistics of weight data were performed using two-way (genotype and age) ANOVA of repeated measures, and mortality was counted using Kaplan-Meier method. Other measurement data were analyzed by one-way ANOVA. P<0.05 was considered statistically significant. The motor function of mice was evaluated by the rotarod experiment and three types of balance beam experiments. The shorter the time for mouse to cross the balance beam, and the longer the time to drop, the stronger the coordination ability of the mouse. […] The time the mouse remained on the rod, i.e., drop latent period, was recorded to indicate its motor coordination ability. […]

WT mice [2] = assay: In vivo MRI scan and brain volume measurement, WT mice; parameters: species or system mouse; conditions: 5 mg/kg/d, administered until 24 weeks, n = 4
Method: 7-week-old N171-82Q HD male mice were paired with female B6C3F1/J hybrid mice to obtain newborn mice. From 21 days of age, male mice were housed in separate cages. 0.5 cm of mouse tail tissue was removed to extract DNA to determine the genotype of the mouse, such that N171-82Q HD mice and WT mice needed for the experiment were obtained. The mice were randomly divided into WT Vehicle group (normal mice), WT test compound group (administration group of normal mice, 5 mg/kg/d, n=10), HD Vehicle group (blank group of HD mice, n=15), HD test compound group (administration groups 1-5 of HD mice, 5 mg/kg/d, n=10). The test compound was suspended in 1% CMC-Na solution and administered by intragastric administration until the end of the study. The weights of the mice were measured every week. Behavioral tests were performed at 12 weeks, 18 weeks, and 24 weeks of age to investigate motor function. At 20 weeks, 3 samples of tissue from each group were used for western blotting and immunohistochemistry. At 24 weeks, MRI scans were performed. At the end of the study, the effect of the test compound on the mortality of mice was evaluated. The WT Vehicle group, WT test compound group, HD Vehicle group and HD test compound group were administered until 24 weeks, and 4 mice in each group were taken for in vivo MRI scanning and brain volume measurement. A 9.4 T MRI scanner equipped with three-axis gradient and animal imaging probes was used. The mice were anesthetized with 1% isoflurane. The breath of mice was monitored, and constant temperature was maintained throughout the scan. Three-dimensional T2 weighted fast spin echo sequence technology was used to obtain images. The imaging resolution and contrast of this technology were sufficient to automatically describe the volume of the mouse brain and substructures. […] These transformations encoded morphological differences between images and analyzed based on deformation morphological measurements (DBM) to detect regional changes in brain volume. The volume of the whole brain (Brain), […] was analyzed. […]

O=c1cc(-c2ccc(N3CCCCC3)cc2)oc2c(O)c(O)ccc12 [Example 1, 7,8-dihydroxy-2-(4-(piperidin-1-yl)phenyl)-4H-chromen-4-one]
Time to drop (drop latent period), rotarod (WT mice [1]; 12 w): 98.33 ± 30.03 s | Time to drop (drop latent period), rotarod (WT mice [1]; 18 w): 78.97 ± 23.84 s | Time to drop (drop latent period), rotarod (WT mice [1]; 24 w): 73.72 ± 18.25 s | MRI volume, Neurocortex (WT mice [2]): 20.11 ± 0.377 mm^3 | MRI volume, Striatum (WT mice [2]): 88.99 ± 0.985 mm^3 | MRI volume, Whole brain (WT mice [2]): 489.08 ± 7.14 mm^3
